From paper PMC5445237 (CPT: Pharmacometrics & Systems Pharmacology, 2017)
Where two headings read alike, the source gives them in different places.

Legend:
[1] = Simulation of apixaban steady-state exposure in VTE treatment population; set-up: species or system human
[2] = Exploratory exposure-response evaluation for bleeding and efficacy endpoints; type: in vivo, human
[3] = Population pharmacokinetic analysis of apixaban; type: in vivo, human; details: for CL renal: male, human, plasma, oral
[4] = cited from earlier work; for increase in apixaban exposure: phase I study, regression analysis
[5] = system: cytochrome P450 3A4 (CYP3A4); details: minor contributions from CYP1A2, 2C8, 2C9, 2C19, 2J2; cited from earlier work
[6] = cited from earlier work
[7] = among 522 subjects from the acute VTE treatment studies

COc1ccc(-n2nc(C(N)=O)c3c2C(=O)N(c2ccc(N4CCCCC4=O)cc2)CC3)cc1 [apixaban, Apixaban]
predicted median daily AUCss lower than in NVAF subjects ([1]; 5-mg b.i.d., VTE treatment population vs NVAF subjects): about 25% | fluctuation between peak and trough concentrations ([1]; predicted, VTE treatment subjects): ~2 fold | bleeding events (major or clinically relevant nonmajor) ([2]; among 178 subjects from the AMPLIFY-EXT study): eight | VTE/VTE-related death events [2, 7]: five | bleeding events (major or clinically relevant nonmajor) [2, 7]: 25 | reduction in Vc/F vs 85 kg reference subject ([3]; 50-kg subject): 24% | increase in Vc/F vs 85 kg reference subject ([3]; 120-kg subject): 20% | impact on apixaban exposure ([3]; age, sex, Asian race (also strong or moderate CYP3A4/P-gp inhibitors)): less than 25% | increase in AUC expected in severe renal impairment ([3]; expected from 27% renal contribution, renal clearance close to zero): ~40% | Asian subjects effect on CL/F (covariate parameter, fractional change) ([3]; final model): −0.168 | Female effect on CLNR/F (covariate parameter, fractional change) ([3]; final model): −0.223 | IIV (interindividual variability, CV%) of CL/F ([3]; final model): 33.1% | IIV (interindividual variability, CV%) of ka ([3]; final model): 50.2% | Q/F (apparent intercompartmental clearance) ([3]; final model): 1.62 L/h | Vp/F (apparent volume of peripheral compartment) ([3]; final model): 19.8 L | Vc/F (apparent volume of central compartment) ([3]; final model, reference VTE treatment subject): 32.1 L | ka, an evening dose ([3]; final population PK model, evening dose): 0.239 h⁻¹ | ka ([3]; final population PK model, morning or afternoon dose): 0.440 h⁻¹ | CL renal ([3]; CLNR/F (apparent nonrenal clearance), final model, reference VTE treatment subject): 42 mL/min | CL renal ([3]; CLR/F (apparent renal clearance), final model, reference VTE treatment subject (60 years, non-Asian male, 85 kg, cCrCL 100 mL/min)): 30.5 mL/min | lower daily AUC vs 60-year-old reference subject ([3]; predicted, 40-year-old male, no change in apparent renal clearance): ~6% | higher daily AUC vs 60-year-old reference subject ([3]; predicted, 80-year-old male, no change in apparent renal clearance): 5% | higher AUC compared to non-Asian subjects ([3]; predicted, Asian subjects): 20% | higher AUC than male subjects ([3]; predicted, female subjects): ~15% | higher AUC than reference subject with normal renal function ([3]; predicted, mild renal impairment (cCrCL of 65 mL/min)): ~17% | higher AUC (exposure) than reference subject ([3]; predicted, severe renal impairment (cCrCL of 15 mL/min)): 56% | decrease in CL/F ([3]; severe renal impairment): 36% | half-life [4]: ~12 h | lower CL/F, NVAF subjects compared to phase I subjects [4]: 14% | oral bioavailability [4]: ~50% | renal clearance as share of total systemic clearance [4]: ~27% | volume of distribution from phase I studies [4]: ~21 L | decrease in exposure after coadministration with rifampin ([4]; healthy subjects, strong inducer of CYP3A4 and P-gp): 50% | increase in exposure after coadministration with ketoconazole ([4]; healthy subjects, strong inhibitor of CYP3A4 and P-gp): 2 fold | predicted median daily AUCss in NVAF subjects ([4]; nonvalvular atrial fibrillation subjects, 5 mg b.i.d.): 3,280 ng*hr/mL | exposure higher following coadministration with ketoconazole than apixaban alone ([4]; phase I clinical studies): ~100% | higher AUC, females compared to males ([4]; phase I studies): 15% | higher AUC, older subjects (>=65 years) compared to younger subjects (18-40 years) ([4]; phase I studies): 32% | increase in apixaban exposure ([4]; mild renal impairment): ~16% | increase in apixaban exposure ([4]; moderate renal impairment): ~29% | increase in apixaban exposure ([4]; severe renal impairment): ~44% | metabolism by CYP3A4 [5]: predominantly metabolized | adjudicated major bleeding (primary safety endpoint) vs enoxaparin/warfarin ([6]; AMPLIFY study): statistically superior | number of major bleeding events, apixaban and placebo groups ([6]; AMPLIFY-EXT): low and similar
